Data taken from patent US11147272B2, “Pyridone compounds and agricultural and horticultural fungicides comprising the same as active ingredients” (MITSUI CHEMICALS AGRO, INC., priority 2017, dated 2021).

Tests used:
Alternaia brassicicola = assay: Test Example C: Alternaria sooty spot on cabbage; type: in vivo; details: Alternaria sooty spot on cabbage; control value class
Description: Seeds of a test plant (cabbage variety: Shikidori) were planted and cultivated until the cotyledons extended.
<Control Value> Control value=100{1−(n/3)}

Magnaporthe grisea = assay: whole plant or invertebrate; type: in vivo; details: Blast on rice; control value class
Plasmopara viticola = assay: Test Example G: Downy mildew on vine; details: Downy mildew on vine; 250 ppm spray, 7 to 10 days after inoculation
Botrytis cinerea = assay: Test Example B: Gray mold on tomato; details: Gray mold on tomato; control value class
Description: Seeds of a test plant (tomato variety: Oogata Fukuju) were planted and cultivated until three to five first leaves (true leaves) appeared. In the test, the inventive compounds were dissolved into dimethyl sulfoxide-methanol mixture solution (volume ratio: 9/1), and the resultant solutions were diluted with well water to a concentration of 250 ppm to obtain the drug solutions. The drug solutions were sprayed to the test plant (2.5 ml/pot). After the drug solutions dried, a conidial suspension (4-8×10^5 conidia/ml) of Botrytis cinerea was inoculated to the plant by spraying. After the inoculation, the plant was kept in a mist chamber at room temperature of 20 to 23° C. for about 48 hours to promote the onset of disease. The degrees of disease development were investigated 2 to 3 days after the inoculation, and the effectiveness of the drug solutions was evaluated.
(§1) In Test Examples described above, the degrees of disease development were evaluated in increments of 0.05 from 0 (as no incidence of disease) to 3 (as the degree of disease development in an untreated plant group). Further, control values were calculated using the following equation based on the degree of disease development.
(§2) n=Degree of disease development in each treated group
In the table, H: more than 50% control value, L: 50% or less control value, and nt: not tested.

Phytophthora infestans = assay: whole plant or invertebrate; type: in vivo; details: Late blight on tomato; control value class
[1] = test system: Blumeria graminis f. sp. hordei; assay: Test Example D: Powdery mildew on barley; details: Powdery mildew on barley; control value class
Description: Seeds of a test plant (barley variety: Akashinriki) were planted and cultivated until the first leaves appeared. In the test, the inventive compounds were dissolved into dimethyl sulfoxide-methanol mixture solution (volume ratio: 9/1), and the resultant solutions were diluted with well water to a concentration of 250 ppm to obtain the drug solutions. The drug solutions were sprayed to the test plant (2.5 ml/pot). After the drug solutions dried, conidia of Blumeria graminis f. sp. hordei were inoculated to the plant by shaking off. The degrees of disease development were investigated 6 to 10 days after the inoculation, and the effectiveness of the drug solutions was evaluated.
as §1, §2

[2] = test system: Colletotrichum orbiculare; assay: Test Example H: Anthracnose on cucumber; details: Anthracnose on cucumber; 250 ppm spray, 6 to 10 days after inoculation
Puccinia recondita = assay: Test Example E: Brown rust on wheat; type: in vivo; details: Brown rust on wheat; control value class

Compound	Test C control value (Alternaia brassicicola)	Test A control value (Magnaporthe grisea)	Test G control value (Plasmopara viticola)	Test B control value (Botrytis cinerea)	Test F control value (Phytophthora infestans)	Test D control value [1]	Test H control value [2]	Test E control value (Puccinia recondita)
CCCc1ccc(=O)n(CC)c1-c1ccc(F)cc1Cl [compound 190]	H (more than 50% control value)	H (more than 50% control value)	H (more than 50% control value)	H (more than 50% control value)	L (50% or less control value)	H (more than 50% control value)	L (50% or less control value)	H (more than 50% control value)
CCCc1cc(Cl)c(=O)n(CC)c1-c1ccc(F)cc1Cl [compound 191]	H (more than 50% control value)	H (more than 50% control value)	H (more than 50% control value)	H (more than 50% control value)	L (50% or less control value)	H (more than 50% control value)	H (more than 50% control value)	H (more than 50% control value)
CCCc1cc(Br)c(=O)n(CC)c1-c1ccc(F)cc1Cl [compound 192]	H (more than 50% control value)	H (more than 50% control value)	L (50% or less control value)	H (more than 50% control value)	L (50% or less control value)	H (more than 50% control value)	H (more than 50% control value)	H (more than 50% control value)
CCn1c(-c2ccc(O)cc2)c(CC(C)C)ccc1=O [compound 193]	H (more than 50% control value)	L (50% or less control value)	L (50% or less control value)	L (50% or less control value)	L (50% or less control value)	L (50% or less control value)	L (50% or less control value)	L (50% or less control value)
CCn1c(-c2ccc(OC)cc2)c(CC(C)C)ccc1=O [compound 194]	L (50% or less control value)	H (more than 50% control value)	L (50% or less control value)	H (more than 50% control value)	L (50% or less control value)	H (more than 50% control value)	L (50% or less control value)	H (more than 50% control value)
CCn1c(-c2ccc(OC)cc2)c(CC(C)C)cc(Cl)c1=O [compound 195]	H (more than 50% control value)	H (more than 50% control value)	L (50% or less control value)	H (more than 50% control value)	L (50% or less control value)	H (more than 50% control value)	H (more than 50% control value)	H (more than 50% control value)
CCn1c(-c2ccc(OC)cc2)c(CC(C)C)cc(Br)c1=O [compound 196]	H (more than 50% control value)	H (more than 50% control value)	L (50% or less control value)	H (more than 50% control value)	L (50% or less control value)	L (50% or less control value)	H (more than 50% control value)	H (more than 50% control value)
C=C(c1cc(Cl)c(=O)n(CC)c1-c1c(F)cccc1F)C(C)C [compound 197]	H (more than 50% control value)	H (more than 50% control value)	H (more than 50% control value)	H (more than 50% control value)	L (50% or less control value)	H (more than 50% control value)	H (more than 50% control value)	H (more than 50% control value)
CCn1c(-c2c(F)cccc2F)c(C(C)C(C)C)cc(Cl)c1=O (stereo not shown) [compound 198]	H (more than 50% control value)	H (more than 50% control value)	L (50% or less control value)	H (more than 50% control value)	L (50% or less control value)	H (more than 50% control value)	H (more than 50% control value)	H (more than 50% control value)
CCn1c(-c2ccc(F)cc2Br)c(CC(C)C)ccc1=O [compound 199]	H (more than 50% control value)	H (more than 50% control value)	H (more than 50% control value)	H (more than 50% control value)	H (more than 50% control value)	H (more than 50% control value)	H (more than 50% control value)	H (more than 50% control value)
CCn1c(-c2ccc(F)cc2Br)c(CC(C)C)cc(Cl)c1=O [compound 200]	H (more than 50% control value)	H (more than 50% control value)	H (more than 50% control value)	H (more than 50% control value)	H (more than 50% control value)	H (more than 50% control value)	H (more than 50% control value)	H (more than 50% control value)
CCn1c(-c2ccc(F)cc2Br)c(CC(C)C)cc(Br)c1=O [compound 201]	H (more than 50% control value)	H (more than 50% control value)	H (more than 50% control value)	H (more than 50% control value)	L (50% or less control value)	H (more than 50% control value)	H (more than 50% control value)	H (more than 50% control value)
CCn1c(-c2ccc(F)cc2C)c(CC(C)C)ccc1=O [compound 202]	L (50% or less control value)	H (more than 50% control value)	H (more than 50% control value)	H (more than 50% control value)	L (50% or less control value)	H (more than 50% control value)	L (50% or less control value)	H (more than 50% control value)
CCn1c(-c2ccc(F)cc2C)c(CC(C)C)cc(Cl)c1=O [compound 203]	H (more than 50% control value)	H (more than 50% control value)	H (more than 50% control value)	H (more than 50% control value)	H (more than 50% control value)	H (more than 50% control value)	H (more than 50% control value)	H (more than 50% control value)
CCn1c(-c2ccc(F)cc2C)c(CC(C)C)cc(Br)c1=O [compound 204]	H (more than 50% control value)	H (more than 50% control value)	H (more than 50% control value)	H (more than 50% control value)	L (50% or less control value)	H (more than 50% control value)	H (more than 50% control value)	H (more than 50% control value)
CCCCc1ccc(=O)n(CC)c1-c1ccc(F)cc1Cl [compound 205]	H (more than 50% control value)	H (more than 50% control value)	H (more than 50% control value)	H (more than 50% control value)	L (50% or less control value)	H (more than 50% control value)	L (50% or less control value)	H (more than 50% control value)
CCCCc1cc(Cl)c(=O)n(CC)c1-c1ccc(F)cc1Cl [compound 206]	H (more than 50% control value)	H (more than 50% control value)	H (more than 50% control value)	H (more than 50% control value)	H (more than 50% control value)	H (more than 50% control value)	H (more than 50% control value)	H (more than 50% control value)
